Test systems include OVCAR-3; CAKI-1; SK-MEL-5; BT-549; COLO 205; Hs-578T; Malme-3M; MCF7; MOLT-4; SF-268; SF-295; SNB-75; MDA-MB-231; EKVX; SNB-19; HCT-116; HCT-15; SW-620; SK-MEL-28; A549.
Common to all, as to assay: NCI tumour cell line growth inhibition, 48 h

Structures are written as SMILES.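 Values below derive from 48-hour exposures of cells grown in 96-well plates, with endpoints linearly interpolated between the two concentrations bracketing the appropriate inhibition level. Abbreviation: GI50, concentration required for 50% inhibition of growth.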 Calls of active or inactive are those of the source. Rule as the data show it: active = GI50 up to about 1.1 µM and inactive = higher.

Data on ten molecules can be found in ChEMBL document CHEMBL1201862, “PubChem BioAssay data set” (2004).

For `C[C@]12CC[C@@H]3c4cc(OCC(F)(F)F)c(O)cc4CC[C@H]3[C@@H]1CC[C@@H]2O`, the GI50 was 0.459 µM (active) with OVCAR-3; 2.74 µM (inactive) in the experiment with CAKI-1; 3.38 µM (inactive) in the experiment with SK-MEL-5; 18.4 µM (inactive) in the experiment on BT-549; 15 µM (inactive) with COLO 205; 2.83 µM (inactive) in the experiment on Hs-578T. In addition, the GI50 was 0.673 µM (active) in the experiment with Malme-3M; 2.36 µM (inactive) with MCF7; 1 µM (active) in the experiment with MOLT-4; 9.29 µM (inactive) in the experiment with SF-268; 1.54 µM (inactive) with SF-295; 1.63 µM (inactive) in the experiment on SNB-75. Besides, the GI50 in the experiment with MDA-MB-231 is 0.536 µM (active); with EKVX, 8.17 µM (inactive); in the experiment with SNB-19, 2.75 µM (inactive); in the experiment with HCT-116, 1.9 µM (inactive); in the experiment on HCT-15, 0.762 µM; in the experiment with SW-620 it was 1.05 µM (active). For the same molecule, the GI50 in the experiment with SK-MEL-28 is 11.8 µM (inactive); in the experiment on A549 it was 5.41 µM (inactive).
On to `CC(C)(C)NC(NC(C)(C)C)=C(C(Cl)=C(Cl)Cl)[N+](=O)[O-]`, for which the GI50 in the experiment with OVCAR-3 was > 100 µM (inactive); with CAKI-1 it was > 100 µM (inactive); with SK-MEL-5, > 100 µM (inactive); in the experiment on BT-549, > 100 µM (inactive); with COLO 205 it was > 100 µM (inactive); in the experiment on Hs-578T it was 29.4 µM (inactive). Further, the GI50 in the experiment with Malme-3M, in the experiment with MCF7, with MOLT-4, in the experiment with SF-268, in the experiment with SF-295 and in the experiment on SNB-75 was > 100 µM (inactive) throughout. For the same molecule, the GI50 with MDA-MB-231 is > 100 µM (inactive); in the experiment on EKVX, > 100 µM (inactive); with SNB-19, 10.1 µM (inactive); in the experiment on HCT-116 it was > 100 µM (inactive); with HCT-15, more than 100 µM; in the experiment on SW-620, > 100 µM (inactive). Further, the GI50 in the experiment on SK-MEL-28 and in the experiment with A549 was > 100 µM (inactive) in each case.
In the case of `COc1cc(/C=N/n2c(-c3ccccc3)nn(C(C)=O)c2=O)cc(OC)c1OC`, the GI50 with OVCAR-3 was 0.69 µM (active); with CAKI-1, 1.77 µM (inactive); in the experiment on SK-MEL-5, 0.675 µM (active); in the experiment on BT-549, 8.55 µM (inactive); with COLO 205 it was 1.58 µM (inactive); in the experiment with Hs-578T, 3.13 µM (inactive). The GI50 with Malme-3M is 5.36 µM (inactive); with MCF7, 0.684 µM (active); with MOLT-4, 0.714 µM (active); in the experiment with SF-268, 6.27 µM (inactive); in the experiment with SF-295, 1.02 µM (active); with SNB-75, 3.01 µM (inactive). Moreover, the GI50 in the experiment on MDA-MB-231 is 4.61 µM (inactive); with EKVX it was 8.81 µM (inactive); in the experiment with SNB-19, 2.56 µM (inactive); in the experiment on HCT-116 it was 0.927 µM (active); in the experiment on HCT-15, 0.635 µM; in the experiment on SW-620 it was 0.836 µM (active). Further, the GI50 in the experiment on SK-MEL-28 was 7.13 µM (inactive); in the experiment with A549, 3.2 µM (inactive).
On to `COc1ccc(NC(=S)N/N=C(\C)c2nc3cccnc3[nH]2)cc1`, for which the GI50 in the experiment on OVCAR-3 was 1.79 µM (inactive); with CAKI-1, 3.96 µM (inactive); with SK-MEL-5, 4.33 µM (inactive); with BT-549, 4.57 µM (inactive); with COLO 205, 4.52 µM (inactive); in the experiment on Hs-578T, 19.6 µM (inactive). Also, the GI50 was 7.59 µM (inactive) in the experiment on Malme-3M; 3.41 µM (inactive) with MCF7; 3.41 µM (inactive) in the experiment on MOLT-4; 4.04 µM (inactive) in the experiment with SF-268; 3.13 µM (inactive) in the experiment on SF-295; 12.5 µM (inactive) with SNB-75. The GI50 in the experiment with MDA-MB-231 is 5.9 µM (inactive); with EKVX, 2.32 µM (inactive); in the experiment on SNB-19, 5.32 µM (inactive); in the experiment on HCT-116, 3.02 µM (inactive); with HCT-15 it was 4.36 µM; in the experiment with SW-620, 6.87 µM (inactive). For the same molecule, the GI50 was 6.46 µM (inactive) in the experiment with SK-MEL-28 and 5.53 µM (inactive) in the experiment on A549.
On to `O=C1CSC(c2ccccc2O)N1c1ccc(Oc2ccc(Cl)cc2)c(Cl)c1` (stereo not given), for which the GI50 in the experiment on OVCAR-3 was 18.6 µM (inactive); in the experiment with CAKI-1, 23.3 µM (inactive); in the experiment on SK-MEL-5, 17.2 µM (inactive); with BT-549 it was 13.1 µM (inactive); in the experiment on COLO 205 it was 18.5 µM (inactive); in the experiment on Hs-578T, 14.9 µM (inactive). In addition, the GI50 in the experiment with Malme-3M is 11.9 µM (inactive); with MCF7, 26.6 µM (inactive); in the experiment with MOLT-4 it was 25.9 µM (inactive); in the experiment with SF-268, 12.9 µM (inactive); with SF-295 it was 16.3 µM (inactive); in the experiment on SNB-75, 17.6 µM (inactive). The GI50 in the experiment with MDA-MB-231 was 16.9 µM (inactive); in the experiment on EKVX, 16.8 µM (inactive); in the experiment with SNB-19, 22 µM (inactive); in the experiment with HCT-116, 15.3 µM (inactive); with HCT-15 it was 19.5 µM; with SW-620 it was 31.4 µM (inactive). In addition, the GI50 with SK-MEL-28 was 19.5 µM (inactive); with A549, 18.4 µM (inactive).
With `COc1ccc(NC(=O)CC(=O)N2N=C(N3CCCCC3)CC2c2ccccc2)cc1` (stereo not given), the GI50 in the experiment with OVCAR-3, with CAKI-1, in the experiment on SK-MEL-5, in the experiment with BT-549, in the experiment with COLO 205 and in the experiment on Hs-578T was > 100 µM (inactive) throughout. Besides, the GI50 with Malme-3M, with MCF7, in the experiment with MOLT-4, in the experiment on SF-268, in the experiment with SF-295 and in the experiment on SNB-75 was > 100 µM (inactive) in each case. The GI50 in the experiment on MDA-MB-231 is > 100 µM (inactive); in the experiment with EKVX it was > 100 µM (inactive); in the experiment on SNB-19, > 100 µM (inactive); in the experiment with HCT-116 it was > 100 µM (inactive); with HCT-15 it was more than 100 µM; in the experiment on SW-620, > 100 µM (inactive). Besides, the GI50 with SK-MEL-28 and in the experiment with A549 was > 100 µM (inactive) each time.
Consider `CC[S+]([O-])c1c2cc(OC)ccc2nc2ccc(OC)cc12` (stereo not given), for which the GI50 in the experiment with OVCAR-3 was 6 µM (inactive); with CAKI-1, 5.06 µM (inactive); in the experiment with SK-MEL-5 it was 16.4 µM (inactive); in the experiment on BT-549, 17.5 µM (inactive); in the experiment on COLO 205, 6.08 µM (inactive); with Hs-578T, 13.1 µM (inactive). The GI50 is 5.12 µM (inactive) with Malme-3M; 2.84 µM (inactive) in the experiment with MCF7; 4.07 µM (inactive) in the experiment with MOLT-4; 14.5 µM (inactive) in the experiment with SF-268; 27.1 µM (inactive) in the experiment with SF-295; 21 µM (inactive) in the experiment on SNB-75. Moreover, the GI50 with MDA-MB-231 was 5.62 µM (inactive); with EKVX, 16.9 µM (inactive); in the experiment with SNB-19 it was 20 µM (inactive); with HCT-116, 3.19 µM (inactive); in the experiment with HCT-15, 6.75 µM; in the experiment on SW-620, 6.84 µM (inactive). In addition, the figures for the GI50 in the experiment with SK-MEL-28 and with A549 were 7.91 µM (inactive) and 22.6 µM (inactive), respectively.
Consider `COc1ccc(OC)c(N2C(=O)/C(=C\c3ccccc3)SC2c2cc(OC)c(OC)c(OC)c2)c1` (stereo not given), for which the GI50 in the experiment with OVCAR-3 is 62.4 µM (inactive); in the experiment with CAKI-1, > 84.3 µM (inactive); in the experiment on SK-MEL-5, > 91.6 µM (inactive); with BT-549 it was 68.4 µM (inactive); with COLO 205 it was > 91.6 µM (inactive); with Hs-578T it was > 78 µM (inactive). Besides, the GI50 in the experiment on Malme-3M was > 100 µM (inactive); in the experiment on MCF7, 3.24 µM (inactive); in the experiment with MOLT-4, 52.6 µM (inactive); with SF-268 it was > 100 µM (inactive); in the experiment on SF-295, 47.5 µM (inactive); in the experiment on SNB-75, 26.2 µM (inactive). Further, the GI50 in the experiment with MDA-MB-231 is > 100 µM (inactive); in the experiment with EKVX it was > 83.6 µM (inactive); with SNB-19 it was > 100 µM (inactive); in the experiment on HCT-116, > 100 µM (inactive); in the experiment with HCT-15 it was 58.3 µM; in the experiment on SW-620, 46.6 µM (inactive). The GI50 in the experiment on SK-MEL-28 is > 100 µM (inactive); in the experiment with A549 it was > 85.7 µM (inactive).
With `Cc1cc(C)c(S(=O)(=O)N2CCCN(S(=O)(=O)c3c(C)cc(C)cc3C)OCCCON(S(=O)(=O)c3c(C)cc(C)cc3C)CCCN(S(=O)(=O)c3c(C)cc(C)cc3C)OCCCO2)c(C)c1`, the GI50 is > 100 µM (inactive) in the experiment with OVCAR-3; > 100 µM (inactive) in the experiment on CAKI-1; > 100 µM (inactive) in the experiment with SK-MEL-5; > 100 µM (inactive) in the experiment on BT-549; > 100 µM (inactive) in the experiment on COLO 205; 51.8 µM (inactive) with Hs-578T. Besides, the GI50 in the experiment on Malme-3M was > 100 µM (inactive); with MCF7, > 100 µM (inactive); in the experiment on MOLT-4, > 100 µM (inactive); in the experiment on SF-268 it was > 100 µM (inactive); with SF-295, > 100 µM (inactive); in the experiment on SNB-75, 70.3 µM (inactive). Also, the GI50 is > 100 µM (inactive) in the experiment with MDA-MB-231; > 100 µM (inactive) in the experiment on EKVX; > 100 µM (inactive) in the experiment with SNB-19; > 100 µM (inactive) in the experiment with HCT-116; more than 100 µM in the experiment with HCT-15; > 100 µM (inactive) with SW-620. For the same molecule, the GI50 with SK-MEL-28 and with A549 was > 100 µM (inactive) each time.
For `O=C(/C=C1\C[C@H]2C=Nc3ccccc3C(=O)N2C1)NCCCNC(=O)/C=C1\C[C@H]2C=Nc3ccccc3C(=O)N2C1`, the GI50 with OVCAR-3 was 12 µM (inactive); with CAKI-1, 13.3 µM (inactive); in the experiment with SK-MEL-5, 16.1 µM (inactive); in the experiment on BT-549, 16.4 µM (inactive); with COLO 205, 12.9 µM (inactive); in the experiment with Hs-578T it was 32 µM (inactive). Moreover, the GI50 with Malme-3M is 15.9 µM (inactive); in the experiment on MCF7, 16.7 µM (inactive); in the experiment with MOLT-4, 2.62 µM (inactive); in the experiment on SF-268, 16.7 µM (inactive); in the experiment on SF-295 it was 19 µM (inactive); with SNB-75, 16.2 µM (inactive). The GI50 in the experiment on MDA-MB-231 was 16.1 µM (inactive); in the experiment on EKVX it was 19.8 µM (inactive); with SNB-19, 16.4 µM (inactive); in the experiment on HCT-116, 16 µM (inactive); in the experiment with HCT-15, 18.1 µM; in the experiment with SW-620 it was 5.51 µM (inactive). Also, the GI50 in the experiment on SK-MEL-28 was 18.9 µM (inactive); in the experiment on A549, 21.1 µM (inactive).
